PubChem BioAssay AID248 (DTP/NCI, 2004)
Several values for one entry are separate records, joined by “and”; a condition that tells them apart may be missing. Identical values can stand only once. Toxic doses and inconclusive results are not listed.

Test system: L1210 leukemia ip in BDF1 mice, survival T/C
Experiment: NCI In Vivo Anticancer Drug Screen. Data for tumor model L1210 Leukemia (intraperitoneal) in B6D2F1 (BDF1) mice
Settings: endpoint: mean survival time, higher = longer survival
Summary of the method: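 Antitumor effect is assessed in tumor-bearing animals. Survival in the compound arm is compared with a vehicle-dosed control arm and expressed as their quotient.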

SMILES: NC(CSC(c1ccccc1)(c1ccccc1)c1ccccc1)C(=O)O (stereo not given)
- T/C (dose: 1.0 mg/kg/injection, schedule: Q01DX Z (ip), vehicle: carboxymethylcellulose (CMC)): 97 % of control and 102 % of control
- T/C (dose: 1.0 mg/kg/injection, schedule: Q01DX Z (ip), vehicle: other): 109 % of control
- T/C (dose: 1.0 mg/kg/injection, schedule: Q01DX Z (ip), vehicle: saline): 109 % of control
- T/C (dose: 1.95 mg/kg/injection, schedule: Q03HX006 (iv), vehicle: clinical formulation): 106 % of control
- T/C (dose: 3.9 mg/kg/injection, schedule: Q03HX006 (iv), vehicle: clinical formulation): 101 % of control
- T/C (dose: 4.0 mg/kg/injection, schedule: Q03HX024 (oral), vehicle: water): 107 % of control
- T/C (dose: 4.1 mg/kg/injection, schedule: Q03HX024 (ip), vehicle: clinical formulation): 107 % of control
- T/C (dose: 4.1 mg/kg/injection, schedule: Q03HX024 (ip), vehicle: saline): 114 % of control
- T/C (dose: 4.1 mg/kg/injection, schedule: Q03HX024 (ip), vehicle: water): 111 % of control
- T/C (dose: 4.4 mg/kg/injection, schedule: Q03HX024 (ip), vehicle: water): 106 % of control
- T/C (dose: 5.0 mg/kg/injection, schedule: Q01DX Z (ip), vehicle: carboxymethylcellulose (CMC)): 108 % of control and 123 % of control
- T/C (dose: 5.0 mg/kg/injection, schedule: Q01DX Z (ip), vehicle: other): 115 % of control
- T/C (dose: 5.0 mg/kg/injection, schedule: Q01DX Z (ip), vehicle: saline): 117 % of control
- T/C (dose: 5.4 mg/kg/injection, schedule: Q03HX024 (ip), vehicle: saline): 111 % of control
- T/C (dose: 6.0 mg/kg/injection, schedule: Q03HX024 (oral), vehicle: water): 118 % of control
- T/C (dose: 6.25 mg/kg/injection, schedule: Q01DX015 (oral), vehicle: saline): 108 % of control
- T/C (dose: 6.25 mg/kg/injection, schedule: Q01DX015 (sc), vehicle: saline): 105 % of control
- T/C (dose: 6.6 mg/kg/injection, schedule: Q03HX024 (ip), vehicle: water): 124 % of control
- T/C (dose: 7.2 mg/kg/injection, schedule: Q03HX024 (ip), vehicle: clinical formulation): 124 % of control
- T/C (dose: 7.81 mg/kg/injection, schedule: Q03HX006 (iv), vehicle: clinical formulation): 103 % of control
- T/C (dose: 7.81 mg/kg/injection, schedule: Q03HX012 (ip), vehicle: clinical formulation): 108 % of control
- T/C (dose: 7.81 mg/kg/injection, schedule: Q03HX012 (ip), vehicle: water): 121 % of control
- T/C (dose: 8.75 mg/kg/injection, schedule: Q03HX008 (ip), vehicle: other): 113 % of control
- T/C (dose: 9.0 mg/kg/injection, schedule: Q03HX024 (oral), vehicle: clinical formulation): 105 % of control
- T/C (dose: 9.0 mg/kg/injection, schedule: Q03HX024 (oral), vehicle: saline): 105 % of control
- T/C (dose: 9.0 mg/kg/injection, schedule: Q03HX024 (oral), vehicle: water): 115 % of control
- T/C (dose: 10.0 mg/kg/injection, schedule: Q01DX Z (ip), vehicle: carboxymethylcellulose (CMC)): 119 % of control
- T/C (dose: 12.5 mg/kg/injection, schedule: Q01DX009 (ip), vehicle: clinical formulation): 116 % of control
- T/C (dose: 12.5 mg/kg/injection, schedule: Q01DX009 (ip), vehicle: other): 123 % of control
- T/C (dose: 12.5 mg/kg/injection, schedule: Q01DX009 (ip), vehicle: water): 116 % of control
- T/C (dose: 12.5 mg/kg/injection, schedule: Q01DX015 (ip), vehicle: saline): 151 % of control
- T/C (dose: 12.5 mg/kg/injection, schedule: Q01DX015 (oral), vehicle: saline): 114 % of control
- T/C (dose: 12.75 mg/kg/injection, schedule: Q03HX024 (ip), vehicle: water): 119 % of control
- T/C (dose: 14.0 mg/kg/injection, schedule: Q03HX024 (oral), vehicle: clinical formulation): 122 % of control
- T/C (dose: 15.62 mg/kg/injection, schedule: Q03HX006 (iv), vehicle: clinical formulation): 103 % of control
- T/C (dose: 15.62 mg/kg/injection, schedule: Q03HX012 (ip), vehicle: water): 152 % of control
- T/C (dose: 16.87 mg/kg/injection, schedule: Q03HX024 (ip), vehicle: other): 151 % of control
- T/C (dose: 17.0 mg/kg/injection, schedule: Q01DX009 (ip), vehicle: other): 109 % of control
- T/C (dose: 17.5 mg/kg/injection, schedule: Q01DX005 (ip), vehicle: other): 114 % of control
- T/C (dose: 17.5 mg/kg/injection, schedule: Q01DX009 (ip), vehicle: other): 113 % of control
- T/C (dose: 17.5 mg/kg/injection, schedule: Q## X006 (ip), vehicle: other): 116 % of control
- T/C (dose: 22.5 mg/kg/injection, schedule: Q03HX024 (ip), vehicle: water): 92 % of control
- T/C (dose: 25.0 mg/kg/injection, schedule: Q01DX009 (ip), vehicle: clinical formulation): 117 % of control
- T/C (dose: 25.0 mg/kg/injection, schedule: Q01DX009 (ip), vehicle: other): 119 % of control
- T/C (dose: 25.0 mg/kg/injection, schedule: Q01DX009 (ip), vehicle: water): 110 % of control
- T/C (dose: 27.0 mg/kg/injection, schedule: Q03HX024 (oral), vehicle: clinical formulation): 152 % of control
- T/C (dose: 31.25 mg/kg/injection, schedule: Q03HX006 (iv), vehicle: clinical formulation): 116 % of control
- T/C (dose: 31.25 mg/kg/injection, schedule: Q03HX012 (ip), vehicle: clinical formulation): 118 % of control
- T/C (dose: 31.25 mg/kg/injection, schedule: Q03HX012 (ip), vehicle: water): 118 % of control
- T/C (dose: 35.0 mg/kg/injection, schedule: Q03HX008 (ip), vehicle: other): 122 % of control
- T/C (dose: 35.0 mg/kg/injection, schedule: Q03HX024 (ip), vehicle: other): 107 % of control
- T/C (dose: 35.0 mg/kg/injection, schedule: Q04DX003 (ip), vehicle: clinical formulation): 96 % of control
- T/C (dose: 35.0 mg/kg/injection, schedule: Q04DX003 (ip), vehicle: other): 113 % of control
- T/C (dose: 35.0 mg/kg/injection, schedule: Q## X006 (ip), vehicle: other): 124 % of control
- T/C (dose: 35.5 mg/kg/injection, schedule: Q01DX009 (ip), vehicle: other): 107 % of control
- T/C (dose: 47.0 mg/kg/injection, schedule: Q04DX003 (ip), vehicle: other): 119 % of control
- T/C (dose: 48.0 mg/kg/injection, schedule: Q03HX024 (oral), vehicle: clinical formulation): 106 % of control
- T/C (dose: 50.0 mg/kg/injection, schedule: Q01DX009 (oral), vehicle: other): 123 % of control
- T/C (dose: 50.0 mg/kg/injection, schedule: Q01DX Z (ip), vehicle: carboxymethylcellulose (CMC)): 102 % of control
- T/C (dose: 52.8 mg/kg/injection, schedule: Q03HX024 (ip), vehicle: clinical formulation): 105 % of control
- T/C (dose: 52.8 mg/kg/injection, schedule: Q04DX003 (ip), vehicle: clinical formulation): 95 % of control and 105 % of control
- T/C (dose: 70.0 mg/kg/injection, schedule: Q01DX001 (ip), vehicle: other): 121 % of control
- T/C (dose: 70.0 mg/kg/injection, schedule: Q03HX008 (ip), vehicle: other): 101 % of control
- T/C (dose: 70.0 mg/kg/injection, schedule: Q04DX003 (ip), vehicle: clinical formulation): 107 % of control
- T/C (dose: 70.0 mg/kg/injection, schedule: Q## X006 (ip), vehicle: other): 121 % of control
- T/C (dose: 78.0 mg/kg/injection, schedule: Q02DX005 (ip), vehicle: other): 152 % of control
- T/C (dose: 78.0 mg/kg/injection, schedule: Q04DX003 (ip), vehicle: other): 114 % of control
- T/C (dose: 78.0 mg/kg/injection, schedule: Q08DX002 (ip), vehicle: other): 110 % of control
- T/C (dose: 80.0 mg/kg/injection, schedule: Q03HX024 (ip), vehicle: clinical formulation): 115 % of control
- T/C (dose: 80.0 mg/kg/injection, schedule: Q04DX003 (ip), vehicle: clinical formulation): 94 % of control and 108 % of control
- T/C (dose: 100.0 mg/kg/injection, schedule: Q01DX009 (ip), vehicle: saline with Tween-80): 108 % of control
- T/C (dose: 100.0 mg/kg/injection, schedule: Q01DX009 (oral), vehicle: other): 118 % of control
- T/C (dose: 100.0 mg/kg/injection, schedule: Q01DX Z (ip), vehicle: other): 115 % of control
- T/C (dose: 100.0 mg/kg/injection, schedule: Q01DX Z (ip), vehicle: saline): 150 % of control
- T/C (dose: 100.0 mg/kg/injection, schedule: Q02DX005 (oral), vehicle: other): 121 % of control
- T/C (dose: 112.0 mg/kg/injection, schedule: Q03HX024 (oral), vehicle: clinical formulation): 96 % of control
- T/C (dose: 112.0 mg/kg/injection, schedule: Q03HX024 (oral), vehicle: saline): 103 % of control
- T/C (dose: 112.0 mg/kg/injection, schedule: Q04DX003 (ip), vehicle: clinical formulation): 122 % of control
- T/C (dose: 125.0 mg/kg/injection, schedule: Q02DX009 (ip), vehicle: other): 97 % of control
- T/C (dose: 130.0 mg/kg/injection, schedule: Q08DX002 (ip), vehicle: other): 124 % of control
- T/C (dose: 140.0 mg/kg/injection, schedule: Q01DX001 (ip), vehicle: other): 118 % of control
- T/C (dose: 150.0 mg/kg/injection, schedule: Q01DX Z (ip), vehicle: saline): 109 % of control
- T/C (dose: 160.0 mg/kg/injection, schedule: Q03HX024 (ip), vehicle: saline): 110 % of control
- T/C (dose: 240.0 mg/kg/injection, schedule: Q03HX024 (ip), vehicle: saline): 92 % of control
- T/C (dose: 250.0 mg/kg/injection, schedule: Q02DX009 (ip), vehicle: other): 103 % of control
- T/C (dose: 250.0 mg/kg/injection, schedule: Q02DX009 (oral), vehicle: other): 121 % of control
- T/C (dose: 250.0 mg/kg/injection, schedule: Q04DX005 (oral), vehicle: other): 121 % of control
- T/C (dose: 250.0 mg/kg/injection, schedule: Q08DX003 (oral), vehicle: other): 111 % of control
- T/C (dose: 280.0 mg/kg/injection, schedule: Q01DX001 (ip), vehicle: other): 107 % of control
- T/C (dose: 280.0 mg/kg/injection, schedule: Q04DX003 (ip), vehicle: saline): 107 % of control
- T/C (dose: 400.0 mg/kg/injection, schedule: Q01DX009 (oral), vehicle: other): 120 % of control
- T/C (dose: 500.0 mg/kg/injection, schedule: Q08DX003 (oral), vehicle: other): 124 % of control
- T/C (dose: 800.0 mg/kg/injection, schedule: Q08DX002 (oral), vehicle: other): 113 % of control
- T/C (dose: 1000.0 mg/kg/injection, schedule: Q02DX009 (oral), vehicle: other): 112 % of control
- T/C (dose: 2000.0 mg/kg/injection, schedule: Q08DX003 (oral), vehicle: other): 151 % of control
